The values below come from patent US12312359B2 (Vitae Pharmaceuticals, LLC, priority 2016, dated 2025).

SMILES strings stand for the structures. Bounds are passed on as bounds.

The target of the assay is T1, biotinylated wild-type menin and MLL-AF9 fusion protein (menin/MLL binding) (Homo sapiens, UniProt O00255).
T1 construct: made in house; host or cells: menin: E. coli; MLL-AF9-FLAG: HEK293 cells, used as cleared lysate
T1 sequence (O00255 1-610): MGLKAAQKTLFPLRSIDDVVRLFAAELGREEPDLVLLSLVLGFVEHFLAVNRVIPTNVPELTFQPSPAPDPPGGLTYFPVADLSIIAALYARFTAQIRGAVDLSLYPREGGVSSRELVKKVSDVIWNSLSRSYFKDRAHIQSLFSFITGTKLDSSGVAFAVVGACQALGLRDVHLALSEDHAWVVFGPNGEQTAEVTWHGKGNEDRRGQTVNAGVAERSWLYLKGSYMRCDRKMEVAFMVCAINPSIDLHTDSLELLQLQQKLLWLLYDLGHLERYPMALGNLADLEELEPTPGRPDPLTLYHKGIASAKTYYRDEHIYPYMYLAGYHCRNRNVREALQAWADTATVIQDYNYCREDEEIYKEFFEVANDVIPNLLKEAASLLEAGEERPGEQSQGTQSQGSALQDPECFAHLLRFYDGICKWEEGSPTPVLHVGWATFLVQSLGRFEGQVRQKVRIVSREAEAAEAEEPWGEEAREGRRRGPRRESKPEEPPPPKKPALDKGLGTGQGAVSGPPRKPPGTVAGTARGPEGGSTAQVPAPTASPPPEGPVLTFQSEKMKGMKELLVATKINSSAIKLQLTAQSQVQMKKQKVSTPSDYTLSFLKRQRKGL
As to the kind of experiment: Assay 1: menin/MLL binding AlphaLISA assay, wild-type menin. Conditions: Table 30; column head does not say wild-type or mutated menin. As to the method: Potencies of inhibitor compounds against menin/MLL binding were assessed by AlphaLISA assay using biotinylated (1) wild-type menin or (2) mutated menin (described in Huang et al, 2012, Nature, 482, 542-546) and MLL-AF9 fusion protein bearing a FLAG epitope at its C-terminus. Menin proteins were expressed in E. coli and covalently modified with biotin using EZ-Link™ Sulfo-NHS-Biotin (ThermoFisher Cat.No. 21217) according to manufacturer's protocol. MLL1-1,396 fused to AF91-92 and the C-terminal FLAG peptide was expressed in HEK293 cells and used as a lysate cleared at 21,000×g for 10 min.
Compounds (2 μL of solutions in DMSO) were dispensed in white 96-well half-area plates (Corning Cat.No. 3693) and incubated for 30 min at RT with 5 nM biotinylated menin and appropriate amount of MLL-AF9-FLAG lysate in 40 μL of 50 mM Tris-HCl buffer pH 7.4 containing 5% (v/v) DMSO, 50 mM NaCl, 0.01% (w/v) bovine serum albumin (BSA) and 1 mM DTT. To this incubation mixture, 40 μL of AlphaLISA anti-FLAG acceptor (PerkinElmer Cat.No. AL112C) and streptavidin donor (PerkinElmer Cat.No. 6760002) beads (10 μg/mL each) was added and incubation continued at RT for 60 min. Alpha (amplified luminescent proximity homogeneous assay) signal was measured on an Envision multi-label plate reader at the end of the incubation. All steps were conducted under dim fluorescent light.
These percent inhibition values were regressed against compound concentrations in the assay using four parameter logit non-linear curve fitting (XLFit, IDBS). The IC50 values were derived from the curve fitting as inflection points on the dose-response curves and are set out in Table 30 below.
As for `CC(C)N(C(=O)c1cc(F)ccc1Oc1cncnc1N1CCC2(CCC(N)(Cc3ccc(C#N)cc3)C2)C1)C(C)C` (single isomer, unassigned) [Example 22B, 2-((4-(7-amino-7-(4-cyanobenzyl)-2-azaspiro[4.4]nonan-2-yl)pyrimidin-5-yl)oxy)-5-fluoro-N,N-diisopropylbenzamide], the IC50 is less than 100 nM.
With `CC(C)N(C(=O)c1cc(F)ccc1Oc1cncnc1N1CCC2(CC(O)C(Cc3ccc4[nH]c(=O)[nH]c4c3)C2)C1)C(C)C` (single isomer, unassigned) [Example 23B, 5-fluoro-2-((4-(7-hydroxy-8-((2-oxo-2,3-dihydro-1H-benzo[d]imidazol-5-yl)methyl)-2-azaspiro[4.4]nonan-2-yl)pyrimidin-5-yl)oxy)-N,N-diisopropylbenzamide], the IC50 was 100 to 1000 nM.
As for `CC(C)n1nccc1-c1cc(F)ccc1Oc1cncnc1N1CCC2(CCN(C(=O)C(N)C3CCCCC3)C2)C1` (single isomer, unassigned) [Example 206B, 2-amino-2-cyclohexyl-1-(7-(5-(4-fluoro-2-(1-isopropyl-1H-pyrazol-5-yl)phenoxy)pyrimidin-4-yl)-2,7-diazaspiro[4.4]nonan-2-yl)ethanone], the IC50 fell in the range of 100 to 1000 nM.
In turn, `CC(C)n1nccc1-c1cc(F)ccc1Oc1cncnc1N1CCC2(CCN(C(=O)C(N)C3CCCCC3)C2)C1` (single isomer, unassigned) [Example 206C, 2-amino-2-cyclohexyl-1-(7-(5-(4-fluoro-2-(1-isopropyl-1H-pyrazol-5-yl)phenoxy)pyrimidin-4-yl)-2,7-diazaspiro[4.4]nonan-2-yl)ethanone] came in with an IC50 of 100 to 1000 nM.
Regarding `N#Cc1ccc(-c2cc(F)ccc2Oc2cncnc2N2CCC3(CCC(N)(Cc4ccccc4)C3)C2)c(C2CC2)c1` (single isomer, unassigned) [Example 250A, 2′-((4-(7-amino-7-benzyl-2-azaspiro[4.4]nonan-2-yl)pyrimidin-5-yl)oxy)-2-cyclopropyl-5′-fluoro-[1,1′-biphenyl]-4-carbonitrile], the IC50 was 100 to 1000 nM.
Regarding `CC(C)n1nccc1-c1cc(F)ccc1Oc1cncnc1N1CCC2(CC(=O)N(Cc3ccc4[nH]c(=O)[nH]c4c3)C2)C1` (stereo not drawn) [Example 13, 5-((7-(5-(4-fluoro-2-(1-isopropyl-1H-pyrazol-5-yl)phenoxy)pyrimidin-4-yl)-3-oxo-2,7-diazaspiro[4.4]nonan-2-yl)methyl)-1H-benzo[d]imidazol-2(3H)-one], the IC50 is less than 100 nM.
`Cc1noc(C(C)C)c1-c1cc(F)ccc1Nc1cncnc1N1CC2(CN(CC3CCOCC3)C2)C1` [Example 14A, N-(4-fluoro-2-(5-isopropyl-3-methylisoxazol-4-yl)phenyl)-4-(6-((tetrahydro-2H-pyran-4-yl)methyl)-2,6-diazaspiro[3.3]heptan-2-yl)pyrimidin-5-amine] came in with an IC50 of less than 100 nM.
Regarding `CP(C)(=O)c1cc(F)ccc1Oc1cncnc1N1CCC2(CCN(Cc3ccc4[nH]c(=O)[nH]c4c3)C2)C1` (stereo not drawn) [Example 17, 5-((7-(5-(2-(dimethylphosphoryl)-4-fluorophenoxy)pyrimidin-4-yl)-2,7-diazaspiro[4.4]nonan-2-yl)methyl)-1H-benzo[d]imidazol-2(3H)-one], the IC50 lay in the range of 100 to 1000 nM.
In turn, `CC(C)c1ncncc1-c1cc(F)ccc1Oc1cncnc1N1CCC2(CC(NCc3ccc(F)cc3)CO2)C1` (stereo not drawn) [Example 20, 7-(5-(4-fluoro-2-(4-isopropylpyrimidin-5-yl)phenoxy)pyrimidin-4-yl)-N-(4-fluorobenzyl)-1-oxa-7-azaspiro[4.4]nonan-3-amine] returned an IC50 of 100 to 1000 nM.
`CNC(=O)[C@H]1CC[C@H](CN2CCC3(CC2)CN(c2ncncc2Oc2ccc(F)cc2C(=O)N(C)C(C)C)C3)CC1` [Example 21, 5-fluoro-N-isopropyl-N-methyl-2-((4-(7-(((1r,4r)-4-(methylcarbamoyl)cyclohexyl)methyl)-2,7-diazaspiro[3.5]nonan-2-yl)pyrimidin-5-yl)oxy)benzamide]: the IC50 is 100 to 1000 nM.
In the case of `CC(C)c1ccccc1-c1cc(F)ccc1Nc1cnccc1N1CC2(CN(CC3CCOCC3)C2)C1` [Example 30, N-(5-fluoro-2′-isopropyl-[1,1′-biphenyl]-2-yl)-4-(6-((tetrahydro-2H-pyran-4-yl)methyl)-2,6-diazaspiro[3.3]heptan-2-yl)pyridin-3-amine], the IC50 was less than 100 nM.
With `CC(C)(F)c1cc(F)ccc1-c1cc(F)ccc1Oc1cncnc1N1CC2(CN(CC3CCOCC3)C2)C1` [Example 31, 2-(5-((4′,5-difluoro-2′-(2-fluoropropan-2-yl)-[1,1′-biphenyl]-2-yl)oxy)pyrimidin-4-yl)-6-((tetrahydro-2H-pyran-4-yl)methyl)-2,6-diazaspiro[3.3]heptane] the figure was less than 100 nM; with `CC(C)NS(=O)(=O)c1cc(F)ccc1Oc1cncnc1N1CC2(CN(CC3CCOCC3)C2)C1` [Example 32, 5-fluoro-N-isopropyl-2-((4-(6-((tetrahydro-2H-pyran-4-yl)methyl)-2,6-diazaspiro[3.3]heptan-2-yl)pyrimidin-5-yl)oxy)benzenesulfonamide], less than 100 nM.
Regarding `CC1(C)C(=O)Nc2cc(CN3CCC4(C3)CN(c3ncncc3Oc3ccc(F)cc3Cl)C4)ccc21` [Example 39, 6-((2-(5-(2-chloro-4-fluorophenoxy)pyrimidin-4-yl)-2,6-diazaspiro[3.4]octan-6-yl)methyl)-3,3-dimethylindolin-2-one], the IC50 was in the range of 100 to 1000 nM.
Then `CC(C)n1nccc1-c1cc(F)ccc1Oc1cnc(Cl)nc1N1CCC2(CCN(Cc3ccc4[nH]c(=O)[nH]c4c3)C2)C1` (stereo not drawn) [Example 46, 5-((7-(2-chloro-5-(4-fluoro-2-(1-isopropyl-1H-pyrazol-5-yl)phenoxy)pyrimidin-4-yl)-2,7-diazaspiro[4.4]nonan-2-yl)methyl)-1,3-dihydro-2H-benzo[d]imidazol-2-one], with 100 to 1000 nM.
Consider `O=c1[nH]c2ccc(CN3CCC4(CCN(c5ncncc5Oc5ccc(F)cc5-c5ccccc5C5CC5)C4)C3)cc2[nH]1` (stereo not drawn) [Example 49, 5-((7-(5-((2′-cyclopropyl-5-fluoro-[1,1′-biphenyl]-2-yl)oxy)pyrimidin-4-yl)-2,7-diazaspiro[4.4]nonan-2-yl)methyl)-1H-benzo[d]imidazol-2(3H)-one], for which the IC50 was less than 100 nM.
Compound `O=c1[nH]c2ccc(CN3CCC4(CCN(c5ncncc5Oc5ccc(F)cc5-c5ccccc5C(F)(F)F)C4)C3)cc2[nH]1` (stereo not drawn) [Example 50, 5-((7-(5-((5-fluoro-2′-(trifluoromethyl)-[1,1′-biphenyl]-2-yl)oxy)pyrimidin-4-yl)-2,7-diazaspiro[4.4]nonan-2-yl)methyl)-1H-benzo[d]imidazol-2(3H)-one] showed an IC50 of less than 100 nM.
For the compound `CCOC(=O)c1csc(N2CCC3(CCN(c4ncncc4Oc4ccc(F)cc4-c4ccc(C#N)cc4C4CC4)C3)C2)n1` (stereo not drawn) [Example 55, Ethyl 2-(7-(5-((4′-cyano-2′-cyclopropyl-5-fluoro-[1,1′-biphenyl]-2-yl)oxy)pyrimidin-4-yl)-2,7-diazaspiro[4.4]nonan-2-yl)thiazole-4-carboxylate], the IC50 was no less than 1000 nM.
Consider `N#Cc1ccc(-c2cc(F)ccc2Oc2cncnc2N2CCC3(CCN(c4nc(C(=O)O)cs4)C3)C2)c(C2CC2)c1` (stereo not drawn) [Example 56, 2-(7-(5-((4′-cyano-2′-cyclopropyl-5-fluoro-[1,1′-biphenyl]-2-yl)oxy)pyrimidin-4-yl)-2,7-diazaspiro[4.4]nonan-2-yl)thiazole-4-carboxylicacid], for which the IC50 is no less than 1000 nM.
In turn, `CNC(=O)c1csc(N2CCC3(CCN(c4ncncc4Oc4ccc(F)cc4-c4ccc(C#N)cc4C4CC4)C3)C2)n1` (stereo not drawn) [Example 57, 2-(7-(5-((4′-cyano-2′-cyclopropyl-5-fluoro-[1,1′-biphenyl]-2-yl)oxy)pyrimidin-4-yl)-2,7-diazaspiro[4.4]nonan-2-yl)-N-methylthiazole-4-carboxamide] showed an IC50 of less than 100 nM.
As to `CN(C)C(=O)c1csc(N2CCC3(CCN(c4ncncc4Oc4ccc(F)cc4-c4ccc(C#N)cc4C4CC4)C3)C2)n1` (stereo not drawn) [Example 58, 2-(7-(5-((4′-cyano-2′-cyclopropyl-5-fluoro-[1,1′-biphenyl]-2-yl)oxy)pyrimidin-4-yl)-2,7-diazaspiro[4.4]nonan-2-yl)-N,N-dimethylthiazole-4-carboxamide], the IC50 was in the range of 100 to 1000 nM.
